Columns and labels:
Adenosine receptor A1 [1] = biological target: T1, Adenosine receptor A1 (Rattus norvegicus, UniProt P25099); experiment: Adenosine A1 receptor mediated negative chronotropic activity in spontaneously beating rat atria; type: functional
T1 sequence (P25099 whole entry): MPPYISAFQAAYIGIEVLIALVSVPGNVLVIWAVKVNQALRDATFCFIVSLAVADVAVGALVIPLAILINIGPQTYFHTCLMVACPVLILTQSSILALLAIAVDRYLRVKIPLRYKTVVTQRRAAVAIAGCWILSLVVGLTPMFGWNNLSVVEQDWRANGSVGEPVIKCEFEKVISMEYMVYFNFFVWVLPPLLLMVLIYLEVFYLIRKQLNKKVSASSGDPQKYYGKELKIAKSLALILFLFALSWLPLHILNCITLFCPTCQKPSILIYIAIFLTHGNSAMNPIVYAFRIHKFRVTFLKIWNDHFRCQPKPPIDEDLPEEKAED

Adenosine receptor A2a [2] = biological target: T2, Adenosine receptor A2a (Rattus norvegicus, UniProt P30543)
T2 sequence (P30543 whole entry): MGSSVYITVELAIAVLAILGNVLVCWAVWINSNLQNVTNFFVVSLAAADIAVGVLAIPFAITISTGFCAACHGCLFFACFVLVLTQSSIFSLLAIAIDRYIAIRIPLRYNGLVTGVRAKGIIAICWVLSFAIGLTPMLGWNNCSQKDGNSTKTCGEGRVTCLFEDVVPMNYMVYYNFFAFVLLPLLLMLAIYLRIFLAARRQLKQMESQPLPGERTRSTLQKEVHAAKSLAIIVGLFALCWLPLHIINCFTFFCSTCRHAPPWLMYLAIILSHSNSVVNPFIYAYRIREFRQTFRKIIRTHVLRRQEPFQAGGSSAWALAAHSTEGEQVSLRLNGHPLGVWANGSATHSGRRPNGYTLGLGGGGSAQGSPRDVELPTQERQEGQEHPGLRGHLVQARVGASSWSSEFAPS
Description: Vasorelaxation as Adenosine A2A receptor activity in rat aorta

Adenosine receptor A1 [3] = biological target: T1, Adenosine receptor A1
Description: Displacement of [3H]CHA from Adenosine A1 receptor of rat brain

Adenosine receptor A2a [4] = biological target: T2, Adenosine receptor A2a; remark: listed apart in the source
Description: Displacement of [3H]-CGS- 51680 from Adenosine A2A receptor of rat striatum.

| EC50 (Adenosine receptor A1 [1]) [nM] | EC50 (Adenosine receptor A2a [2]) [nM] | Ki (Adenosine receptor A1 [3]) [nM] | Ki (Adenosine receptor A2a [4]) [nM] | Compound |
| --- | --- | --- | --- | --- |
| > 1 | > 1 | > 1 | 51 | CCNC(=O)[C@H]1O[C@@H](n2cnc3c(N)nc(/C=C\CCCc4ccccc4)nc32)[C@H](O)[C@@H]1O |
| > 1 | – | 618 | 757 | CCCC/C=C\c1nc(N)c2ncn([C@@H]3O[C@H](CO)[C@@H](O)[C@H]3O)c2n1 |
| > 1 | 594 | 251 | 1.6 | CCCC/C=C/c1nc(N)c2ncn([C@@H]3O[C@H](C(=O)NCC)[C@@H](O)[C@H]3O)c2n1 |
| > 1 | 576 | 1020 | 3.5 | CCNC(=O)[C@H]1O[C@@H](n2cnc3c(N)nc(/C=C/CCCc4ccccc4)nc32)[C@H](O)[C@@H]1O |
| > 1 | – | – | – | CCCCC#Cc1nc(N)c2ncn([C@@H]3O[C@H](C(=O)NCC)[C@@H](O)[C@H]3O)c2n1 |
| > 1 | 676 | 951 | 70 | CCCC/C=C\c1nc(N)c2ncn(C3O[C@H](C(=O)NCC)[C@@H](O)[C@H]3O)c2n1 (stereo partly drawn) |
| – | – | 332 | 14 | CCCC/C=C/c1nc(N)c2ncn([C@@H]3O[C@H](CO)[C@@H](O)[C@H]3O)c2n1 |

The next lines start with the molecule.

| Compound | EC50 (Adenosine receptor A1 [1]) [nM] | EC50 (Adenosine receptor A2a [2]) [nM] | Ki (Adenosine receptor A1 [3]) [nM] | Ki (Adenosine receptor A2a [4]) [nM] |
| --- | --- | --- | --- | --- |
| CCNC(=O)[C@H]1O[C@@H](n2cnc3c(N)nc(C#CCCCc4ccccc4)nc32)[C@H](O)[C@@H]1O | > 1 | – | – | – |
| CCNC(=O)[C@H]1O[C@@H](n2cnc3c(N)nc(/C=C/c4ccccc4)nc32)[C@H](O)[C@@H]1O | 420 | 194 | 117 | 234 |
| CCCCCCc1nc(N)c2ncn([C@@H]3O[C@H](C(=O)NCC)[C@@H](O)[C@H]3O)c2n1 | > 1 | 1 | > 1 | 136 |
| CCNC(=O)[C@H]1O[C@@H](n2cnc3c(N)nc(C#Cc4ccccc4)nc32)[C@H](O)[C@@H]1O | > 1 | > 1 | – | – |
| CCCCC#Cc1nc(N)c2ncn([C@@H]3O[C@H](CO)[C@@H](O)[C@H]3O)c2n1 | > 1 | – | 98 | – |
| CCCCCCc1nc(N)c2ncn(C3O[C@H](CO)[C@@H](O)[C@H]3O)c2n1 (stereo partly drawn) | > 1 | – | > 1 | > 1 |
